This passage reports melting point results from patent US7405299B2, “Compounds as pharmaceutical agents” (Eli Lilly and Company, priority 2003, dated 2008).

The structures appear in SMILES notation.

The molecule `c1ccc(-c2nn3c(c2-c2cccc4nsnc24)CCC3)nc1` [Example 4, 4-[2-(Pyridin-2-yl)-5,6-dihydro-4H-pyrrolo[1,2-b]pyrazol-3-yl]-benzo [2,1,3]thiadiazole] yielded a melting point of 140 to 142 °C.

The molecule `c1ccc(-c2nn3c(c2-c2ccc4nsnc4c2)CCC3)nc1` [Example 5, 5-[2-(Pyridin-2-yl)-5,6-dihydro-4H-pyrrolo[1,2-b]pyrazol-3-yl]benzo[2,1,3]thiadiazole] displayed a melting point of 184 to 186 °C.

`c1ccc(-c2nn3c(c2-c2nc4ncccc4[nH]2)CCC3)nc1` [Example 8, 2-[2-(Pyridin-2-yl)-5,6-dihydro-4H-pyrrolo[1,2-b]pyrazol-3-yl]-1H-imidazo[4,5-b]pyridine]: the melting point was in the range of 170 to 172 °C.

For the molecule `c1ccc(-c2nn3c(c2-c2nc4cnccc4[nH]2)CCC3)nc1` [Example 9, 2-[2-(Pyridin-2-yl)-5,6-dihydro-4H-pyrrolo[1,2-b]pyrazol-3-yl]-1H-imidazo[4,5-c]pyridine], the melting point lay in the range of 201 to 203 °C.

`c1ccc(-c2nn3c(c2-c2nc4ccccc4[nH]2)CCC3)nc1` [Example 10, 2-[2-(Pyridin-2-yl)-5,6-dihydro-4H-pyrrolo[1,2-b]pyrazol-3-yl]-1H-benzoimidazole] came in with a melting point of 172 to 175 °C.

With `c1ccc(-c2nn3c(c2-c2nc4ncccc4o2)CCC3)nc1` [Example 11, 2-[2-(Pyridin-2-yl)-5,6-dihydro-4H-pyrrolo[1,2-b]pyrazol-3-yl]-oxazolo[4,5-b]pyridine], the melting point lay in the range of 182 to 184 °C.

`c1ccc(-c2nn3c(c2-c2cncc4cccnc24)CCC3)nc1` [Example 80a, 8-(2-Pyridin-2-yl-5,6-dihydro-4H-pyrrolo[1,2-b]pyrazol-3-yl)-[1,6]naphthyridine] registered a melting point of 180 to 184 °C.

As usually defined, the melting point is the temperature of the solid-liquid transition.
